Measurements from ChEMBL document CHEMBL4706588, “Rational design and biological evaluation of a new class of thiazolopyridyl tetrahydroacridines as cholinesterase and GSK-3 dual inhibitors for Alzheimer's disease” (Eur J Med Chem, 2020).
Active and inactive are the calls of the source. The rule behind the calls is not given here.

Legend:
[1] = molecular target: Cholinesterase (Homo sapiens, UniProt P06276); assay: Inhibition of human BuChE using butyrylthiocholine iodide as substrate preincubated with enzyme for 1 min followed by substrate addition and measured after 10 mins by Ellman's method
[2] = molecular target: Acetylcholinesterase (Homo sapiens, UniProt P22303); assay: Inhibition of human AChE using acetylthiocholine iodide as substrate preincubated with enzyme for 1 min followed by substrate addition and measured after 10 mins by Ellman's method
[3] = molecular target: Glycogen synthase kinase-3 beta (Homo sapiens, UniProt P49841); assay: biochemical
Description: Inhibition of recombinant human N-terminal His6-tagged GSK-3beta H350L mutant expressed in baculovirus infected Sf21 cells using GSM as substrate incubated for 30 mins in presence of ATP by kinase-glo luminescence assay

[4] = in vitro; details: PAMPA
Description: Effective permeability of compound at 100 ug/ml incubated for 20 hrs by PAMPA-BBB assay

[5] = Effect on swimming speed in ICR mouse model of scopolamine-induced memory impairment at 15 mg/kg, po administered 30 mins prior to scopolamine injection by Morris water maze test; format: ADME, organism-based; details: in vivo, 0.5 h
[6] = system: BV-2; assay: Inhibition of LPS-induced ROS production in mouse BV-2 cells at 5 uM incubated for 1 hr followed by LPS stimulation and measured after 24 hrs by DCFH-DA staining based inverted fluorescence microscopic analysis; format: functional, cell-based; details: time 25.0 hrs
[7] = system: Mus musculus; assay: Cognitive enhancing effect in ICR mouse model of scopolamine-induced memory impairment assessed as improvement in trajectories to platform at 15 mg/kg, po administered 30 mins prior to scopolamine injection by Morris water maze test; format: functional, organism-based
[8] = Effect on cell morphology in LPS-treated mouse BV-2 cells at 5 uM pretreated for 1 hr followed by incubation with LPS for 24 hrs by fluorescence microscopic analysis; format: ADME; details: bv-2, 25 h

Sequence of Acetylcholinesterase (P22303 whole entry): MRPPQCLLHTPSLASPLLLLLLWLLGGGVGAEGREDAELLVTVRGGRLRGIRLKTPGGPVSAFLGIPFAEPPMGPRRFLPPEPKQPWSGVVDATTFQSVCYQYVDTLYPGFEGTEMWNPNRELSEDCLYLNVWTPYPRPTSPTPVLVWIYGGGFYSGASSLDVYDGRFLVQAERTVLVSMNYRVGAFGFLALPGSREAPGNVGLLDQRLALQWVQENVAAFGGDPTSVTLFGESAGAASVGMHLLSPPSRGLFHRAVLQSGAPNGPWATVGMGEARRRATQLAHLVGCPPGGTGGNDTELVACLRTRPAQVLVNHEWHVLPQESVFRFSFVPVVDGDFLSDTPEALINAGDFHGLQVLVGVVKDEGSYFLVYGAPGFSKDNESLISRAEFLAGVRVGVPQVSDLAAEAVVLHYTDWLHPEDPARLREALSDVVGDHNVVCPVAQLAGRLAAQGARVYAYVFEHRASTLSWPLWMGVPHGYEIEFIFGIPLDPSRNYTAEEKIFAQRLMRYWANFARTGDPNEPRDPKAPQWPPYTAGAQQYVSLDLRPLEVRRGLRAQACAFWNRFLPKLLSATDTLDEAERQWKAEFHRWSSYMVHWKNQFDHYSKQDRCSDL
Sequence of Glycogen synthase kinase-3 beta (P49841 whole entry): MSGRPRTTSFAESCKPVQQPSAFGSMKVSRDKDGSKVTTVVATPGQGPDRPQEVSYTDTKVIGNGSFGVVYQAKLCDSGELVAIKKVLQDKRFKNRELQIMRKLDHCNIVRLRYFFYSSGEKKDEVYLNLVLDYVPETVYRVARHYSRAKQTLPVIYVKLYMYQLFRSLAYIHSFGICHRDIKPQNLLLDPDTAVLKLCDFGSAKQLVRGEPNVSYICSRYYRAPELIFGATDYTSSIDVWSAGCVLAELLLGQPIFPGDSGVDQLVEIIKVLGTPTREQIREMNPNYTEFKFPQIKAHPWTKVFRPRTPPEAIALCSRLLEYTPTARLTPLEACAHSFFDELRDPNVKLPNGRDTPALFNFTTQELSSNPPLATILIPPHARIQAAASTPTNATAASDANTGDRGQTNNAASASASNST
Sequence of Cholinesterase (P06276 whole entry): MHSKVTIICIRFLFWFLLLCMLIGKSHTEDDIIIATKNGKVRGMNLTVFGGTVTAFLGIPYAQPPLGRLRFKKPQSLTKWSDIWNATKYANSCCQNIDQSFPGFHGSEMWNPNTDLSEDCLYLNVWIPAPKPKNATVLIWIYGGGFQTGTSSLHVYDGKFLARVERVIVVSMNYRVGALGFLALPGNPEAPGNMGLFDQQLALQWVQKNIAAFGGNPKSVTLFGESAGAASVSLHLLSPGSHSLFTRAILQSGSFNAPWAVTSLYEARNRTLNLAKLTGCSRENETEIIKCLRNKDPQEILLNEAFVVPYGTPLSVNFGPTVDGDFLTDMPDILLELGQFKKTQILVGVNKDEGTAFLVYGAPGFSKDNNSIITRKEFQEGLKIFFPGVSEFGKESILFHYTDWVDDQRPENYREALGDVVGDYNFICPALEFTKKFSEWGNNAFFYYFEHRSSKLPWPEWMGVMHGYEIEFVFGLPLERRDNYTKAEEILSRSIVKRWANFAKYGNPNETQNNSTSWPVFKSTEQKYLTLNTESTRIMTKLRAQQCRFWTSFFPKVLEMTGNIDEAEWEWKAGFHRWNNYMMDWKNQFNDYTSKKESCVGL

Row | SMILES | IC50 [1] [nM] | IC50 [2] [nM] | IC50 [3] [nM] | Papp at 20 h, 100 ug/ml [4] [×10⁻⁶ cm/s] | Activity [5] | inhibition [6] | Activity [7] | Activity [8]
1 | CNC(=O)c1sc(-c2ccnc(NC(=O)CNCCNc3c4c(nc5ccccc35)CCCC4)c2)nc1OCC(C)(C)C | 236 | 103 | 165 |  |  |  |  | 
2 | CNC(=O)c1sc(-c2ccnc(NC(=O)CNCCNc3c4c(nc5ccccc35)CCCC4)c2)nc1OCC(C)C | 619 | 49.2 | 132 |  |  |  |  | 
3 | CNC(=O)c1sc(-c2ccnc(NC(=O)CNCCNc3c4c(nc5ccc(OC)cc35)CCCC4)c2)nc1OCC1CC1 | > 1000 | 30.7 | 39.3 | 5.7 |  |  |  | 
4 | NC(=O)c1sc(-c2ccnc(NC(=O)C3CC3)c2)nc1OCCc1cn(-c2c3c(nc4ccccc24)CCCC3)nn1 | > 1000 | > 1000 | 6.5 |  |  |  |  | 
5 | CC(=O)Nc1cc(-c2nc(OCC3CC3)c(C(=O)NCCCNc3c4c(nc5ccccc35)CCCC4)s2)ccn1 | 173 | 394 | 92.8 |  |  |  |  | 
6 | O=C(NCCCNc1c2c(nc3ccccc13)CCCC2)c1sc(-c2ccnc(NC(=O)C3CC3)c2)nc1OCC1CC1 | 216 | 312 | 104 |  |  |  |  | 
7 | CNC(=O)c1sc(-c2ccnc(NC(=O)C3CC3)c2)nc1OCCc1cn(-c2c3c(nc4ccccc24)CCCC3)nn1 | 600 | > 1000 | 51.7 |  |  |  |  | 
8 | CNC(=O)c1sc(-c2ccnc(NC(=O)C3CC3)c2)nc1OCCOCc1cn(CCNc2c3c(nc4ccccc24)CCCC3)nn1 | 360 | 44.7 | 20.8 | 4.6 | Non-Toxic | Active | Active | Non-Toxic
9 | CNC(=O)c1sc(-c2ccnc(NC(=O)C3CC3)c2)nc1OCCOCc1cn(CCNc2c3c(nc4cc(Cl)ccc24)CCCC3)nn1 | > 1000 | 12.1 | 26.3 | 4.2 |  |  |  | 
10 | CCCNC(=O)c1sc(-c2ccnc(NC(=O)CNCCNc3c4c(nc5ccccc35)CCCC4)c2)nc1OCC1CC1 | 89.5 | 4.9 | 239 |  |  |  |  | 
11 | CNC(=O)c1sc(-c2ccnc(NC(=O)C3CC3)c2)nc1OCCCc1cn(CCNc2c3c(nc4ccccc24)CCCC3)nn1 | 170 | 168 | 64.3 |  |  |  |  | 
12 | CNC(=O)c1sc(-c2ccnc(NC(=O)CNCCNc3c4c(nc5cc(Cl)ccc35)CCCC4)c2)nc1OCC1CC1 | 613 | 40.5 | 62.6 |  |  |  |  | 
13 | CNC(=O)c1sc(-c2ccnc(NC(=O)CNCCCCNc3c4c(nc5ccccc35)CCCC4)c2)nc1OCC1CC1 | 48.3 | 23.1 | 41.6 | 7.1 |  |  |  | 
14 | CNC(=O)c1sc(-c2ccnc(NC(=O)C3CC3)c2)nc1OCCOCc1cn(-c2c3c(nc4ccccc24)CCCC3)nn1 | 200 | > 1000 | 83.9 |  |  |  |  | 
15 | CNC(=O)c1sc(-c2ccnc(NC(=O)CNCCNc3c4c(nc5ccccc35)CCCC4)c2)nc1OC | 262 | 97.4 | 41.1 |  |  |  |  | 
16 | CNC(=O)c1sc(-c2ccnc(NC(=O)C3CC3)c2)nc1OCCc1cn(CCNc2c3c(nc4ccc(OC)cc24)CCCC3)nn1 | 37.5 | > 1000 | 37.1 |  |  |  |  | 
17 | CNC(=O)c1sc(-c2ccnc(NC(=O)CNCCCCCCCCNc3c4c(nc5ccccc35)CCCC4)c2)nc1OCC1CC1 | 3.2 | 15.2 | 62.2 |  |  |  |  | 
18 | CNC(=O)c1sc(-c2ccnc(NC(=O)C3CC3)c2)nc1OCCc1cn(CCNc2c3c(nc4cc(Cl)ccc24)CCCC3)nn1 | > 1000 | 38.7 | 46.7 | 4.7 |  |  |  | 
19 | CNC(=O)c1sc(-c2ccnc(NC(=O)CNCCNc3c4c(nc5ccccc35)CCCC4)c2)nc1OCC1CCC1 | 277 | 155 | 130 |  |  |  |  | 
20 | O=C(NCCCNc1c2c(nc3ccccc13)CCCC2)c1sc(-c2ccnc(NC(=O)C3CCC3)c2)nc1OCC1CC1 | 30.7 | 295 | 80.7 |  |  |  |  | 
21 | CCNC(=O)c1sc(-c2ccnc(NC(=O)CNCCNc3c4c(nc5ccccc35)CCCC4)c2)nc1OCC1CC1 | 512 | 45.2 | 114 |  |  |  |  | 
22 | CNC(=O)c1sc(-c2ccnc(NC(=O)CNCCNc3c4c(nc5ccccc35)CCCC4)c2)nc1OC(C)C | 330 | 237 | 71.6 |  |  |  |  | 
23 | NC(=O)c1sc(-c2ccnc(NC(=O)CNCCNc3c4c(nc5ccccc35)CCCC4)c2)nc1OCC1CC1 | 190 | 0.8 | 42.6 | 4.9 |  |  |  | 
24 | CNC(=O)c1sc(-c2ccnc(NC(=O)C3CC3)c2)nc1OCCOCc1cn(CCNc2c3c(nc4ccc(OC)cc24)CCCC3)nn1 | > 1000 | > 1000 | 31 |  |  |  |  | 
25 | CNC(=O)c1sc(-c2ccnc(NC(=O)CNCCCCCCNc3c4c(nc5ccccc35)CCCC4)c2)nc1OCC1CC1 | 8.2 | 21.9 | 62 |  |  |  |  | 
26 | CNC(=O)c1sc(-c2ccnc(NC(=O)C3CC3)c2)nc1OCCc1cn(CCNc2c3c(nc4ccccc24)CCCC3)nn1 | 300 | 269 | 72 |  |  |  |  | 
27 | CNC(=O)c1sc(-c2ccnc(NC(=O)C3CC3)c2)nc1OCCCc1cn(CCNc2c3c(nc4ccc(OC)cc24)CCCC3)nn1 | > 1000 | > 1000 | 14.6 |  |  |  |  | 
28 | CCn1cc(C(=O)O)c(=O)c2cc(F)c(N3CCNC(C)C3)c(F)c21 (stereo unspecified) [LOMEFLOXACIN] |  |  |  | 0.9 |  |  |  | 
29 | COc1nc(-c2ccnc(NC(=O)C3CC3)c2)sc1C(N)=O | > 1000 | > 1000 | 17.2 |  |  |  |  | 
30 | CCn1cc(C(=O)O)c(=O)c2ccc(-n3cccc3)cc21 |  |  |  | 2.5 |  |  |  | 
